Laboratory results taken from publication PMC4057637, “Efficacy of novel antibacterial compounds targeting histidine kinase YycG protein” (Applied Microbiology and Biotechnology, 2014).

Key:
[1] = test system: S. epidermidis ATCC 35984; test: Derivatives combined with vancomycin or cefazolin (FIC index); type: cell-based; conditions: S. epidermidis ATCC 35984
Excerpt: Combination antimicrobial therapy is widely used to take advantage of different mechanisms of action. It may potentiate the effect of individual antimicrobial agents by synergic action (Bijnsdorp et al. [2011]; Cokol et al. [2011]). The glycopeptide antibiotics, such as vancomycin, can bind the peptidoglycan side chains in the cell wall and prevent cross-linking during cell wall synthesis. Vancomycin has been considered to be one of the most reliable therapeutic agents against staphylococcal infections, but it is unable to clear biofilms even at high concentration (128 mg/l) (Climo et al. [1999]; Darouiche et al. [1994]; Tenover et al. [2001]). […] YycGF also plays an important role in the synthesis of peptidoglycan in B. subtilis and S. aureus (Bisicchia et al. [2007]; Dubrac and Msadek [2004]). In a preliminary study, we assessed the effects of the combined application of the derivatives with vancomycin and cefazolin against S. epidermidis ATCC 35984 according to the method of Odds ([2003]) (Cottagnoud et al. [2003]). […] No antagonism was observed between the derivatives and vancomycin or cefazolin (Table S1).
17 Table S1. The derivatives combined with vancomycin or cefazolin against S. epidermidis
Derivatives Antibiotics MIC (mg/L) FICIa Synergyb
Derivative Antibiotic In combination
alone alone (Derivative/Antibiotic)
19 a The FICI was calculated as FIC indexes= (MICderivative A in combination/MICderivative A
20 alone)+(MICantibiotic B in combination/MIC antibiotic B alone).
21 b The interaction between the two antibacterials is noted as follows: FIC index≤0.5,
22 Synergy (+); 0.5<FIC index≤4 (-), No interaction; FIC≥4.0, Antagonism.

[2] = test system: 24-h biofilms of S. epidermidis ATCC 35984; test: Rabbit subcutaneous S. epidermidis biofilm infection model; type: in vivo, New Zealand White rabbits; conditions: vancomycin 128 mg/l, local injection at 0, 24, 48 h; 72 h
Experimental: To test the effectiveness in vivo of H2-74 and H2-81, 24-h biofilms of S. epidermidis grown on polyethylene disks were imbedded subcutaneously into the New Zealand White rabbits and treated with the derivatives for 72 h in a modification of the method used previously (He et al. [2011]). Disks were cut from polyethylene 96-well plates (8 mm diameter, 1 mm thickness), sterilized with 75 % ethanol and placed in a Petri dish (100 mm diameter). An overnight culture of S. epidermidis ATCC 35984 (20 ml) was inoculated into the dish and incubated at 37 °C for 24 h. The disks covered with biofilms were then implanted subcutaneously in female New Zealand White rabbits (2.0–2.5 kg) that had been anesthetized with pentobarbital sodium (5 mg/kg i.v.). Four incisions (10 mm) were made on the back of the rabbit along the spine bilaterally after removal of fur, and the sub cutis was carefully dissected to form a 2-cm × 3-cm cavity. Two biofilm-covered polyethylene disks were implanted into each cavity, and to minimize the effect of between-animal variation, four different treatments were given locally to each rabbit.
Vancomycin (128 mg/l) and 0.1 % DMSO were administered as the controls. Twenty-four hours after the last treatment, the rabbits were euthanized and the implants were taken out with sterile forceps. Biofilms were scraped from the disks, and the viable bacteria were determined by CFU counting, as previously described (He et al. [2011]). All animals were housed and used in compliance with the guidelines of the Institute of Animal Care and Use Committee, and the protocol was approved by the committee.

[3] = test system: mature (24-h-old) biofilms of S. epidermidis ATCC 35984; test: Bacterial viability in mature biofilms by CLSM with Live/Dead staining; type: cell-based; conditions: Staphylococcus epidermidis, ATCC35984, 16 h, read-out: proportion of viable cells in mature biofilms
Experimental: A diluted overnight culture of the bacteria was inoculated into cell culture glass bottom dishes (WPI, USA) and incubated at 37 °C for 24 h. […] The biofilms were washed with PBS and stained with SYTO9 and propidium iodide (PI), both of which were used at a concentration of 1 μM. SYTO9-stained live cells and PI-stained cells dead in biofilms were visualized by a Leica TCS SP5 confocal laser scanning microscope with a ×63 1.4-NA oil immersion objective. Three-dimensional biofilm images were created by IMARIS 7.0.0 software (Bitplane).

Compound	MIC Antibiotic alone [1]	viable bacteria recovered from implanted disks [2]	viability at 128 µg/mL [3]
Cc1nnc(SCC2=C(C(=O)O)N3C(=O)[C@@H](NC(=O)Cn4cnnn4)[C@H]3SC2)s1 [cefazolin, reference compound]	8 mg/L		
CN[C@H](CC(C)C)C(=O)N[C@H]1C(=O)N[C@@H](CC(N)=O)C(=O)N[C@H]2C(=O)N[C@H]3C(=O)N[C@H](C(=O)N[C@H](C(=O)O)c4cc(O)cc(O)c4-c4cc3ccc4O)[C@H](O)c3ccc(c(Cl)c3)Oc3cc2cc(c3O[C@@H]2O[C@H](CO)[C@@H](O)[C@H](O)[C@H]2O[C@H]2C[C@](C)(N)[C@H](O)[C@H](C)O2)Oc2ccc(cc2Cl)[C@H]1O [vancomycin, reference compound]	4 mg/L	5.21 ± 0.24 log10 CFU/cm^2	88.6%
